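Values below derive from 48-hour exposures of cells grown in 96-well plates, with endpoints linearly interpolated between the two concentrations bracketing the appropriate inhibition level. The concentration for 50% growth inhibition is given as GI50.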 The source made the active and inactive calls. Cut-off read from the data, not from the text of the source: active = GI50 up to about 1.1 µM and inactive = higher. Where only a bound is given, the exact number is not on record here.

What all share (test): NCI-60 cell line screen, 48 h
Assay [1] deals with 786-0.
The test system of assay [2] is BT-549.
In assay [3] the test system is CCRF-CEM.
Assay [4] has as its system HCT-15.
Assay [5] deals with HT-29.
Assay [6] concerns KM12.
Assay [7] relates to LOX IMVI.
In assay [8] the test system is NCI-H226.
In assay [9] the test system is NCI-H460.
Assay [10] deals with OVCAR-3.
The test system of assay [11] is PC-3.
Assay [12] has as its system SF-295.
For assay [13], the system named is SF-539.
Assay [14] has as its system SK-MEL-5.
The subject of assay [15] is SN12C.
For assay [16], the system named is SNB-19.
Assay [17] has as its system SR.
Assay [18] concerns TK-10.
Assay [19] has as its system UACC-62.

With `C=CCn1c(=O)c(-c2ccccc2)c(O)c2ccccc21`, the GI50 in [1] was > 100 µM (inactive); in [2], > 100 µM (inactive); in assay [3] it was > 100 µM (inactive); in assay [4], more than 100 µM; in assay [5] it was > 100 µM (inactive); in [6] it was > 100 µM (inactive). The GI50 in [7], in [8], in [9], in assay [10], in assay [11] and in [12] was > 100 µM (inactive) each time. Besides, the GI50 in assay [13], in [14], in assay [15], in assay [16], in assay [17] and in assay [18] was > 100 µM (inactive) throughout.
Take `c1cncc(CNc2ncn[nH]2)c1`: the GI50 is > 100 µM (inactive) in assay [1]; > 100 µM (inactive) in assay [2]; more than 100 µM in assay [4]; > 100 µM (inactive) in [5]; > 100 µM (inactive) in assay [6]; > 100 µM (inactive) in assay [7]. The GI50 in assay [8], in assay [9], in assay [10], in assay [11], in assay [12] and in [13] was > 100 µM (inactive) throughout. For the same molecule, the GI50 in [14], in assay [15], in assay [16], in assay [17], in assay [18] and in [19] was > 100 µM (inactive) in each case.
Consider `C=C=C(CC1CCCCC1=O)S(=O)(=O)c1ccccc1` (stereo not given), for which the GI50 in assay [1] is 4.2 µM (inactive); in [2] it was > 10 µM (inactive); in assay [3], 2.16 µM (inactive); in assay [4], 4.52 µM; in [5], > 10 µM (inactive); in assay [7], > 4.78 µM (inactive). For the same molecule, the GI50 in assay [8], in assay [9], in assay [10], in assay [11], in [12] and in assay [13] was > 10 µM (inactive) each time. In addition, the GI50 in assay [14] is > 4.8 µM (inactive); in assay [15], 7.41 µM (inactive); in [16], > 10 µM (inactive); in assay [17] it was 2.41 µM (inactive); in assay [18], > 10 µM (inactive); in assay [19], > 5.12 µM (inactive).
On to `NS(=O)(=O)c1cc2c(cc1Cl)NC(Cc1ccccc1)NS2(=O)=O` (stereo not given) [BENZYLHYDROCHLOROTHIAZIDE], for which the GI50 in [1] was > 100 µM (inactive); in assay [2], > 100 µM (inactive); in assay [4] it was more than 100 µM; in assay [5] it was > 100 µM (inactive); in assay [6], > 100 µM (inactive); in [7] it was 99.8 µM (inactive). Also, the GI50 in assay [8] is > 100 µM (inactive); in assay [9], > 100 µM (inactive); in assay [10], > 100 µM (inactive); in [11] it was > 100 µM (inactive); in [12], > 100 µM (inactive); in [13], 45.1 µM (inactive). Besides, the GI50 in assay [14] is > 100 µM (inactive); in assay [15], > 100 µM (inactive); in assay [16], > 100 µM (inactive); in assay [17], 61 µM (inactive); in [18] it was > 100 µM (inactive); in [19], > 100 µM (inactive).
With `COc1ccc(Cc2coc3ccccc3c2=O)cc1OC`, the GI50 in assay [1] is > 100 µM (inactive); in assay [2] it was 38 µM (inactive); in assay [3], > 100 µM (inactive); in assay [4] it was 31.8 µM; in [5] it was > 100 µM (inactive); in assay [7] it was 49.9 µM (inactive). Further, the GI50 was 94 µM (inactive) in assay [8]; 68.1 µM (inactive) in [9]; 78 µM (inactive) in assay [10]; 93.5 µM (inactive) in assay [11]; 47.2 µM (inactive) in assay [12]; 42.8 µM (inactive) in assay [13]. Moreover, the GI50 in assay [14] was 21.3 µM (inactive); in assay [15], > 100 µM (inactive); in assay [16], > 100 µM (inactive); in assay [17] it was 61.1 µM (inactive); in assay [18] it was > 100 µM (inactive); in assay [19], > 100 µM (inactive).
With `COC(=O)/C(C#N)=C(/NCc1ccccc1)Nc1ccccc1`, the GI50 in assay [1] was 92.5 µM (inactive); in assay [2], > 100 µM (inactive); in assay [4], 83.2 µM; in assay [5], 87.7 µM (inactive); in [7], 61.2 µM (inactive); in assay [8], > 100 µM (inactive). Also, the GI50 in assay [9] is 77.4 µM (inactive); in [10], 72.3 µM (inactive); in assay [11], 46 µM (inactive); in [12], 46.1 µM (inactive); in assay [13] it was > 100 µM (inactive); in assay [14], 64 µM (inactive). Further, the GI50 was > 100 µM (inactive) in assay [15], > 100 µM (inactive) in assay [16], 53.8 µM (inactive) in assay [17] and > 100 µM (inactive) in assay [18].
For the molecule `CCOC(=O)c1cc(C2CCN(CC(C)CC)C2=S)c(-c2cc(C)no2)[nH]1` (stereo not given), the GI50 is > 100 µM (inactive) in assay [1]; 83.9 µM (inactive) in assay [2]; > 100 µM (inactive) in assay [3]; more than 100 µM in assay [4]; 41.7 µM (inactive) in assay [5]; 49.2 µM (inactive) in assay [6]. For the same molecule, the GI50 in [7] is 41.8 µM (inactive); in [8] it was 55.3 µM (inactive); in [9], > 100 µM (inactive); in [10] it was > 100 µM (inactive); in assay [11], 41.6 µM (inactive); in assay [12], > 100 µM (inactive). Moreover, the GI50 was > 100 µM (inactive) in assay [13]; 48.4 µM (inactive) in assay [14]; > 100 µM (inactive) in assay [15]; 46.1 µM (inactive) in [16]; 56.5 µM (inactive) in assay [17]; 72.3 µM (inactive) in assay [19].
In the case of `O=C(c1ccccc1)C1C(C(=O)c2ccccc2)C(c2ccccc2)N(c2ccccc2)C1c1ccccc1` (stereo not given), the GI50 in [1] was > 100 µM (inactive); in assay [2], > 100 µM (inactive); in assay [3], > 100 µM (inactive); in [4], more than 100 µM; in [7] it was > 100 µM (inactive); in assay [8], > 100 µM (inactive). Besides, the GI50 in assay [9], in assay [10], in assay [11], in assay [12], in assay [13] and in assay [14] was > 100 µM (inactive) in each case. Moreover, the GI50 in [15], in [16], in assay [17], in assay [18] and in assay [19] was > 100 µM (inactive) throughout.
As to `O=[N+]([O-])c1ccc(N/N=C2\C=CCCC2)c([N+](=O)[O-])c1`, the GI50 was > 100 µM (inactive) in [1]; > 100 µM (inactive) in assay [2]; > 100 µM (inactive) in assay [3]; more than 100 µM in [4]; > 100 µM (inactive) in assay [5]; > 100 µM (inactive) in assay [6]. Further, the GI50 was > 100 µM (inactive) in assay [7]; > 100 µM (inactive) in assay [8]; > 100 µM (inactive) in [9]; > 100 µM (inactive) in [10]; > 100 µM (inactive) in assay [11]; 31.3 µM (inactive) in assay [12]. The GI50 in assay [14], in [15], in assay [16], in assay [17], in assay [18] and in assay [19] was > 100 µM (inactive) throughout.
Regarding `CCOC(=O)c1c(C)noc1/N=N/N(CCO)CCO`, the GI50 in assay [1] was 38.2 µM (inactive); in [2], 35.9 µM (inactive); in assay [3], 16.9 µM (inactive); in [4], 41.5 µM; in [5], 33.4 µM (inactive); in assay [6], 36.6 µM (inactive). Further, the GI50 in assay [7] was 32.4 µM (inactive); in [8], 23.6 µM (inactive); in assay [9], 27.9 µM (inactive); in assay [10], 19.7 µM (inactive); in assay [11], 31.8 µM (inactive); in assay [12] it was 23.7 µM (inactive). Also, the GI50 is 15.7 µM (inactive) in [14]; 37.5 µM (inactive) in assay [15]; 37.2 µM (inactive) in assay [16]; 19.9 µM (inactive) in assay [17]; 56.1 µM (inactive) in [18]; 23.9 µM (inactive) in assay [19].
Take `CC1(C)OCC2OC3([C@H](O)CCO)OC(C)(C)OC3C2O1` (stereo not given in full): the GI50 in [1] is > 100 µM (inactive); in assay [2], > 100 µM (inactive); in assay [3], > 100 µM (inactive); in [4] it was more than 100 µM; in [5], > 100 µM (inactive); in assay [6] it was > 100 µM (inactive). Further, the GI50 in [7], in assay [8], in [9], in assay [10], in assay [11] and in [12] was > 100 µM (inactive) each time. For the same molecule, the GI50 in assay [13], in [14], in [15], in [16], in [17] and in [19] was > 100 µM (inactive) throughout.

Source of the values: ChEMBL document CHEMBL1201862, “PubChem BioAssay data set” (2004).
